The values below come from BindingDB's records for PubMed 35688004 (University of Hradec Kralove, 2022).

For test [1], the target named is Phosphatidylinositol 4,5-bisphosphate 3-kinase catalytic subunit alpha isoform (Homo sapiens, UniProt P42336). The test is described as follows: Inhibition of human PI3Kalpha preincubated for 15 mins followed by ATP addition measured after 1 hr by TR-FRET assay. Background: In TR-FRET formats the signal depends on donor and acceptor labels being close together.
Chain of Phosphatidylinositol 4,5-bisphosphate 3-kinase catalytic subunit alpha isoform (P42336 whole entry, canonical isoform): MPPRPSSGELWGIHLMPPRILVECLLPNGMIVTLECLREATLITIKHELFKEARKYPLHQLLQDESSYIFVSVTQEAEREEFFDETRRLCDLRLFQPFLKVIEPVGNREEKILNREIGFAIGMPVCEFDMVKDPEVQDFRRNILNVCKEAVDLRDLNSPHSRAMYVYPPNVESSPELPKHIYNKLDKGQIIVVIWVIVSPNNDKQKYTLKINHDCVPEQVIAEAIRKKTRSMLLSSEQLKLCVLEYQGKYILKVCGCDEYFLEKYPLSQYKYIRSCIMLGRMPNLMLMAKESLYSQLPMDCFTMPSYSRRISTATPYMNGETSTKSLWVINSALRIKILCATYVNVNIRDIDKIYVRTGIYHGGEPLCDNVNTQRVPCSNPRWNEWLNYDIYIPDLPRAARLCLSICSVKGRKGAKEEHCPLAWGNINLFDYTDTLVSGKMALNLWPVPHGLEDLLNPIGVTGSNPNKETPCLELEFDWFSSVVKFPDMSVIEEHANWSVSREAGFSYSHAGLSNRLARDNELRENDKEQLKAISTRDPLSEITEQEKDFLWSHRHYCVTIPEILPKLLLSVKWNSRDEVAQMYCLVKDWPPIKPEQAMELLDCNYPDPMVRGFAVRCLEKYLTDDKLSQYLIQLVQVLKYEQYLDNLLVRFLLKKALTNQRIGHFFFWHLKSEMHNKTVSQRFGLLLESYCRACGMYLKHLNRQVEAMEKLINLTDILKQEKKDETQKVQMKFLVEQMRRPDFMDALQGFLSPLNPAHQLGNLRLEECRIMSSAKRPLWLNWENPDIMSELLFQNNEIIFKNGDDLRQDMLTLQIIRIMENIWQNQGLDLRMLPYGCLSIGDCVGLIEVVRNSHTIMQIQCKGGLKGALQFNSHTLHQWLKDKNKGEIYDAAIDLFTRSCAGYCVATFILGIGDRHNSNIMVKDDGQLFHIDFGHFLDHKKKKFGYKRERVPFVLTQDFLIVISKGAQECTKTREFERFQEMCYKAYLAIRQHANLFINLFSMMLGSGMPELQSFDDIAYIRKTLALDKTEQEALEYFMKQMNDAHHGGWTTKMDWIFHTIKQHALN
Test [2] deals with Phosphatidylinositol 4,5-bisphosphate 3-kinase catalytic subunit beta isoform (Homo sapiens, UniProt P42338). The test is described as follows: Inhibition of human PI3Kbeta preincubated for 15 mins followed by ATP addition measured after 1 hr by TR-FRET assay.
Chain of Phosphatidylinositol 4,5-bisphosphate 3-kinase catalytic subunit beta isoform (P42338 whole entry, canonical isoform): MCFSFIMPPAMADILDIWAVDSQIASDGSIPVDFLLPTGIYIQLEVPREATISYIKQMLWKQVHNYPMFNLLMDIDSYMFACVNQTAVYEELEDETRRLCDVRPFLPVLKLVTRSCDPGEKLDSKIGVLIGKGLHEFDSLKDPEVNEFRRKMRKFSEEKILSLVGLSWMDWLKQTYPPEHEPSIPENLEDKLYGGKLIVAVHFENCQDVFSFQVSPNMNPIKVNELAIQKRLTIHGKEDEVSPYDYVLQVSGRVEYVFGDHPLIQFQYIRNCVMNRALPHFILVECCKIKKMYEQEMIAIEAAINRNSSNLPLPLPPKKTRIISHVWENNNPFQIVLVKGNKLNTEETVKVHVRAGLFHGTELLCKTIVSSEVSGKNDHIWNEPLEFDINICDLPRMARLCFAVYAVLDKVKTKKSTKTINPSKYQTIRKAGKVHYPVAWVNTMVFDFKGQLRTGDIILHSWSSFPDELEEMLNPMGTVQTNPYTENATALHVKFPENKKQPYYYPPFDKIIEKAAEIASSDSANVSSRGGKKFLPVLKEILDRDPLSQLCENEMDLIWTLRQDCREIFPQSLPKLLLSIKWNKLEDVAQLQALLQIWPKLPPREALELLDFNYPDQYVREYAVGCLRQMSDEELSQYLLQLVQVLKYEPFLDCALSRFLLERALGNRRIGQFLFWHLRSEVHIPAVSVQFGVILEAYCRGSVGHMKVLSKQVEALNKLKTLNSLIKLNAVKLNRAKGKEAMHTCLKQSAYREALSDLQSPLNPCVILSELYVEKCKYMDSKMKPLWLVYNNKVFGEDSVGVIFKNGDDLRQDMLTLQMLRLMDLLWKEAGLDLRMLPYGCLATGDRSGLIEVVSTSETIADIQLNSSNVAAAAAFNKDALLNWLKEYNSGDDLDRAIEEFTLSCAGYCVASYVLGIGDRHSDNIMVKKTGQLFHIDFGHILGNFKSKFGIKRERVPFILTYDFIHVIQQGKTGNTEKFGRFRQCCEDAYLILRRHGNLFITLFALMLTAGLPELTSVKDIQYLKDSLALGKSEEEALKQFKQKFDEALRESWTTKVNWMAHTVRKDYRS
The target of test [3] is Phosphatidylinositol 4,5-bisphosphate 3-kinase catalytic subunit gamma isoform (Homo sapiens, UniProt P48736). The experiment in a line: Inhibition of human PI3Kgamma preincubated for 15 mins followed by ATP addition measured after 1 hr by TR-FRET assay.
Chain of Phosphatidylinositol 4,5-bisphosphate 3-kinase catalytic subunit gamma isoform (P48736 whole entry, canonical isoform): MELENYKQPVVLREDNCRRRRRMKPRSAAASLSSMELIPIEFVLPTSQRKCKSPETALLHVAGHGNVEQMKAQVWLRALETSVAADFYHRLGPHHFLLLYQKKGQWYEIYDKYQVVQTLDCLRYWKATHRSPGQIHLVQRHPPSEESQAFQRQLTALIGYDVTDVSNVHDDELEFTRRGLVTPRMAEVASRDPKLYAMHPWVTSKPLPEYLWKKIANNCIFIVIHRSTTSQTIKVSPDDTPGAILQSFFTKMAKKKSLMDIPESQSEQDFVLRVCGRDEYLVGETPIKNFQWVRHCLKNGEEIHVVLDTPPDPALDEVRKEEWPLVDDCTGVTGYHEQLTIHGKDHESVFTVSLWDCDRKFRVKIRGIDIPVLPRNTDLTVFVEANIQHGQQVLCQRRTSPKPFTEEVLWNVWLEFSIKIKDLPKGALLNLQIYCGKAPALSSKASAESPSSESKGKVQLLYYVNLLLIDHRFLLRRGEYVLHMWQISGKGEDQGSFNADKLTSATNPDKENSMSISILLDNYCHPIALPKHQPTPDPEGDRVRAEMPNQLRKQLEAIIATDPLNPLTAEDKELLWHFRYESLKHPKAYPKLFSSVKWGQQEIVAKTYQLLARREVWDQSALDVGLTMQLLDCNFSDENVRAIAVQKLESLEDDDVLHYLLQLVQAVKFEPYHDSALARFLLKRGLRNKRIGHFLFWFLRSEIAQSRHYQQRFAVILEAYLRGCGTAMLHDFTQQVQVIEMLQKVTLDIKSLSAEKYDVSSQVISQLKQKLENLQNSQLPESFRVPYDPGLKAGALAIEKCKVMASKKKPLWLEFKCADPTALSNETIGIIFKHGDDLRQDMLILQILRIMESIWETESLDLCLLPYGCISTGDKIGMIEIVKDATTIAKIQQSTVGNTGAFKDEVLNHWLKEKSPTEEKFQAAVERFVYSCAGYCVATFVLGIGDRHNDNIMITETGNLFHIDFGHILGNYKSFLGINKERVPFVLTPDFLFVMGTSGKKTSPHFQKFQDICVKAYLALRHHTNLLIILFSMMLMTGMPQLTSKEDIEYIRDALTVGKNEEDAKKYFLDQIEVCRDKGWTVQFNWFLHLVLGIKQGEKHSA

The structures appear in SMILES notation.

Take `Nc1ncnc2c1c(-c1cc3cc(O)ccc3[nH]1)nn2C1CCOCC1` [US10172858, Table 2.42]: the IC50 in test [1] and in test [2] was above 500 nM in each case. As to `Nc1ncnc2c1c(-c1cc3cccc(O)c3[nH]1)nn2C1CCOCC1` [US10172858, Table 2.62], the IC50 in test [1], in test [2] and in test [3] was above 500 nM throughout. `COc1cccc2cc(-c3nn(C4CCOCC4)c4ncnc(N)c34)[nH]c12` [US10172858, Table 2.63]: in test [2], the IC50 is above 500 nM. In the case of `Nc1ncnc2c1c(-c1cc3cc(O)cc(Cl)c3[nH]1)nn2C1CCOCC1` [US10172858, Table 2.68], the IC50 in test [2] is above 500 nM. Turning to `CC(=O)N1CCC(n2nc(-c3cc4c(Cl)ccc(O)c4[nH]3)c3c(N)ncnc32)CC1` [US10172858, Table 2.69], the IC50 in test [1], in test [2] and in test [3] was above 500 nM in each case. Regarding `CC(=O)N1CCC(n2nc(-c3cc4cc(O)cc(Cl)c4[nH]3)c3c(N)ncnc32)CC1` [US10172858, Table 2.70], in test [2], the IC50 was above 500 nM.

By IC50 is commonly meant the point on the concentration scale where inhibition reaches its midpoint. Read a low IC50 as greater potency in that assay.
